Test results published in PubChem BioAssay AID1053181 (The Scripps Research Institute Molecular Screening Center, 2014).
The source made the active and inactive calls. The rule behind the calls is not given here.

target: Trace amine-associated receptor 1 (Homo sapiens) (UniProt Q96RJ0); experiment: TAAR1 agonists in human receptor cells, SAR follow-up, cell-based, fluorescence, MedChem round 2 (AID 1053181); conditions: TAAR1-expressing cells, fluorescence agonist read-out
Sequence (Q96RJ0 whole entry, looked up, the tested form may be a part): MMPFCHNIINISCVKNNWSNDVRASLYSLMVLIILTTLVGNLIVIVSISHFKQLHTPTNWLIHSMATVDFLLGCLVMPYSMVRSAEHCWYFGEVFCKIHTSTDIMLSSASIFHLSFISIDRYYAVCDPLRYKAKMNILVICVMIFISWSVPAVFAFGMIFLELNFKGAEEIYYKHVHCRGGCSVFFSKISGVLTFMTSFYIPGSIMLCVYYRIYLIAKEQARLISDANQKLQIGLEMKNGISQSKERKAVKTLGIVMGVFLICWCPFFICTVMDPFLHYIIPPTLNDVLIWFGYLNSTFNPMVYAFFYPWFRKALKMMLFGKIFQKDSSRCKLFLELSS

| SMILES | EC50 |
| --- | --- |
| N#Cc1c(C(F)(F)F)cc(-c2ccc(Cl)cc2)nc1SCC(=O)N1CCCCCC1 | > 29900 nM (inactive) |
| O=C(CCN1CCC(c2ccccc2)C1)c1ccccc1 (configuration not stated) | 765 nM |
| N#Cc1c(C(F)(F)F)cc(-c2ccc(Cl)cc2)nc1SCC(=O)N1CCCC1 | 1070 nM |
| CC(CN1CCCC1Cc1ccccc1)C(=O)c1ccc2c(c1)OCCO2 (configuration not stated) | 2960 nM |

Further lines, results first:

| EC50 | SMILES |
| --- | --- |
| 672 nM | Cc1ccc(C(=O)CCN2CCC(c3ccccc3)C2)cc1 (configuration not stated) |
| 419 nM | COc1cc(C(=O)CCN2CCC(c3ccccc3)C2)cc(OC)c1OC (configuration not stated) |
| 3.74 nM | N#Cc1c(C(F)(F)F)cc(-c2ccc(Cl)cc2)nc1SCC(=O)Nc1ncccn1 |
